Test results: PubChem BioAssay (NCI)
Converted amounts (≈) assume the structure as drawn. “And” between values parts separate entries of the source, which are not always exact repeats. Equal values may be shown once.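 A five-concentration, 48-hour dose response in 96-well plates underlies each endpoint, interpolated linearly between surrounding concentrations. At the GI50, growth is halved. TGI marks complete inhibition of growth.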 The source made the active and inactive calls. Cut-off read from the data, not from the text of the source: active = GI50 below about 0.43 µM; inactive = the rest.

How the values were obtained:
Assay in all cases: NCI anticancer screen, dose series, 48 h
HS 578T breast = tested on: HS 578T breast
NCI-H522 lung = tested on: NCI-H522 lung
HL-60(TB) leukemia = tested on: HL-60(TB) leukemia
DMS 273 small cell lung = tested on: DMS 273 small cell lung
SNB-19 CNS = tested on: SNB-19 CNS
OVCAR-8 ovarian = tested on: OVCAR-8 ovarian
OVCAR-5 ovarian = tested on: OVCAR-5 ovarian
KM20L2 colon = tested on: KM20L2 colon
CAKI-1 renal = tested on: CAKI-1 renal
COLO 205 colon = tested on: COLO 205 colon
SF-268 CNS = tested on: SF-268 CNS
RXF 393 renal = tested on: RXF 393 renal
LOX IMVI melanoma = tested on: LOX IMVI melanoma
SK-MEL-5 melanoma = tested on: SK-MEL-5 melanoma
HCC-2998 colon = tested on: HCC-2998 colon
RPMI-8226 leukemia = tested on: RPMI-8226 leukemia
LXFL 529 NSCLC = tested on: LXFL 529 NSCLC
SK-MEL-28 melanoma = tested on: SK-MEL-28 melanoma
KM12 colon = tested on: KM12 colon
MOLT-4 leukemia = tested on: MOLT-4 leukemia
DMS 114 small cell lung = tested on: DMS 114 small cell lung
EKVX NSCLC = tested on: EKVX NSCLC
A498 renal = tested on: A498 renal
IGROV1 ovarian = tested on: IGROV1 ovarian
OVCAR-3 ovarian = tested on: OVCAR-3 ovarian
ACHN renal = tested on: ACHN renal
UACC-62 melanoma = tested on: UACC-62 melanoma
UACC-257 melanoma = tested on: UACC-257 melanoma
CCRF-CEM leukemia = tested on: CCRF-CEM leukemia
HOP-62 NSCLC = tested on: HOP-62 NSCLC
MDA-N = tested on: MDA-N
SF-295 CNS = tested on: SF-295 CNS
SW-620 colon = tested on: SW-620 colon
M14 melanoma = tested on: M14 melanoma
786-0 renal = tested on: 786-0 renal
SN12C renal = tested on: SN12C renal
SR leukemia = tested on: SR leukemia
U251 CNS = tested on: U251 CNS
HOP-92 NSCLC = tested on: HOP-92 NSCLC
HT29 colon = tested on: HT29 colon
HCT-15 colon = tested on: HCT-15 colon
M19-MEL melanoma = tested on: M19-MEL melanoma
NCI-H23 lung = tested on: NCI-H23 lung
UO-31 renal = tested on: UO-31 renal
NCI-H226 lung = tested on: NCI-H226 lung
OVCAR-4 ovarian = tested on: OVCAR-4 ovarian
BT-549 breast = tested on: BT-549 breast
SK-MEL-2 melanoma = tested on: SK-MEL-2 melanoma
MDA-MB-231 breast = tested on: MDA-MB-231 breast
SF-539 CNS = tested on: SF-539 CNS
PC-3 prostate = tested on: PC-3 prostate
HOP-18 NSCLC = tested on: HOP-18 NSCLC
DLD-1 colon = tested on: DLD-1 colon
MDA-MB-435 = tested on: MDA-MB-435
MCF7 breast = tested on: MCF7 breast
MALME-3M melanoma = tested on: MALME-3M melanoma
NCI-H460 lung = tested on: NCI-H460 lung
T-47D breast = tested on: T-47D breast
SNB-78 CNS = tested on: SNB-78 CNS
K-562 leukemia = tested on: K-562 leukemia
DU-145 prostate = tested on: DU-145 prostate
TK-10 renal = tested on: TK-10 renal

COc1c(O)c2c(c3cc(C(=O)N4CCc5c4c(O)c(OC)c4[nH]c(C(=O)N6CC7CC78C6=CC(=O)c6[nH]cc(C)c68)cc54)[nH]c13)CCN2C(N)=O (stereo not given)
TGI (HS 578T breast): 3410 nM | GI50 (NCI-H522 lung): 0.0168 µg/mL (≈ 0.0239 µM) | TGI (NCI-H522 lung): 48.3 nM and 0.0372 µg/mL | GI50 (HL-60(TB) leukemia): 0.007 µg/mL (≈ 0.00995 µM) | TGI (HL-60(TB) leukemia): 0.0439 µg/mL (≈ 0.0624 µM) | GI50 (DMS 273 small cell lung): 0.00198 µg/mL (≈ 0.00282 µM) | TGI (DMS 273 small cell lung): 7.18 nM and 0.0106 µg/mL | TGI (SNB-19 CNS): 76.8 nM and 3.69 µM and 0.185 µg/mL | TGI (OVCAR-8 ovarian): 2.65 nM | GI50 (OVCAR-5 ovarian): 0.0152 µg/mL (≈ 0.0216 µM) | TGI (OVCAR-5 ovarian): 0.0519 µg/mL (≈ 0.0737 µM) | TGI (KM20L2 colon): 18.1 nM | outcome (KM20L2 colon): inactive | TGI (CAKI-1 renal): 5.31 nM and > 100 µM and 0.00582 µg/mL | TGI (COLO 205 colon): 3.83 nM and 5.18 µM and 0.00504 µg/mL | TGI (SF-268 CNS): 47.4 nM and > 100 µM and 0.00521 µg/mL | GI50 (RXF 393 renal): 0.0282 µg/mL (≈ 0.0401 µM) | TGI (RXF 393 renal): 447 nM and 0.0456 µg/mL | TGI (LOX IMVI melanoma): 2.61 nM and 287 nM and 0.00412 µg/mL | TGI (SK-MEL-5 melanoma): 27.9 nM and 400 nM and 0.00964 µg/mL | GI50 (HCC-2998 colon): 173 nM | TGI (HCC-2998 colon): 174 nM and 1020 nM | TGI (RPMI-8226 leukemia): 313 nM and 11.9 µM and 0.159 µg/mL | TGI (LXFL 529 NSCLC): 32.9 nM | outcome (LXFL 529 NSCLC): inactive | GI50 (SK-MEL-28 melanoma): 354 nM | TGI (KM12 colon): 9.37 nM and 929 nM and 0.0348 µg/mL | GI50 (MOLT-4 leukemia): 0.00642 µg/mL (≈ 0.00912 µM) | TGI (MOLT-4 leukemia): 456 nM and 0.0737 µg/mL | GI50 (DMS 114 small cell lung): 0.00276 µg/mL (≈ 0.00392 µM) | TGI (DMS 114 small cell lung): 15.1 nM and 0.0121 µg/mL | GI50 (EKVX NSCLC): 0.00694 µg/mL (≈ 0.00986 µM) | TGI (EKVX NSCLC): > 100 µM and 0.0904 µg/mL | TGI (A498 renal): 6.94 nM and 247 nM and 0.0354 µg/mL | GI50 (IGROV1 ovarian): 10800 nM | TGI (IGROV1 ovarian): > 100000 nM | TGI (OVCAR-3 ovarian): 48.6 nM and > 100 µM and 0.0456 µg/mL | TGI (ACHN renal): 14.2 nM | TGI (UACC-62 melanoma): 5.3 nM and 688 nM and 0.00323 µg/mL | GI50 (UACC-257 melanoma): 1340 nM | GI50 (CCRF-CEM leukemia): 0.00439 µg/mL (≈ 0.00624 µM) | TGI (CCRF-CEM leukemia): 963 nM and 0.0344 µg/mL | GI50 (HOP-62 NSCLC): 2.51 nM and 0.0165 µg/mL | TGI (HOP-62 NSCLC): 14.6 nM and 0.0745 µg/mL | TGI (MDA-N): 22300 nM | GI50 (SF-295 CNS): 0.00174 µg/mL (≈ 0.00247 µM) | TGI (SF-295 CNS): 4.8 nM and 0.00618 µg/mL | TGI (SW-620 colon): 3.46 nM and 456 nM and 0.0038 µg/mL | GI50 (M14 melanoma): 172 nM | GI50 (786-0 renal): 29.3 nM | TGI (SN12C renal): 5.75 nM and 3.41 µM and 0.103 µg/mL | TGI (SR leukemia): > 100 µM and 0.0804 µg/mL | TGI (U251 CNS): 2.66 nM and 305 nM and 0.00324 µg/mL | GI50 (HOP-92 NSCLC): 0.0081 µg/mL (≈ 0.0115 µM) | TGI (HOP-92 NSCLC): 28.8 nM and 0.0401 µg/mL | GI50 (HT29 colon): 2.54 nM | GI50 (HCT-15 colon): 157 nM | GI50 (M19-MEL melanoma): 0.0165 µg/mL (≈ 0.0235 µM) | TGI (M19-MEL melanoma): 14.8 nM and 0.041 µg/mL | TGI (NCI-H23 lung): 2.42 nM | GI50 (UO-31 renal): 223 nM | TGI (NCI-H226 lung): 1.47 nM and 276 nM and 0.0163 µg/mL | GI50 (OVCAR-4 ovarian): 420 nM and 0.0198 µg/mL | TGI (OVCAR-4 ovarian): 2.91 µM and 0.0729 µg/mL | TGI (BT-549 breast): 5010 nM | GI50 (SK-MEL-2 melanoma): 0.0187 µg/mL (≈ 0.0266 µM) | TGI (SK-MEL-2 melanoma): 0.0349 µg/mL (≈ 0.0495 µM) | TGI (MDA-MB-231 breast): > 100000 nM | TGI (SF-539 CNS): 12.1 nM and 897 nM and 0.007 µg/mL | TGI (PC-3 prostate): 10000 nM | GI50 (HOP-18 NSCLC): 12.6 nM | TGI (HOP-18 NSCLC): 85.6 nM | outcome (HOP-18 NSCLC): inactive | GI50 (DLD-1 colon): 0.00341 µg/mL (≈ 0.00485 µM) | TGI (MDA-MB-435): 783 nM | TGI (MCF7 breast): 397 nM | TGI (MALME-3M melanoma): 5.23 nM and 1.02 µM and 0.00419 µg/mL | TGI (NCI-H460 lung): 1.83 nM and 137 nM and 0.00377 µg/mL | TGI (T-47D breast): 40000 nM | GI50 (SNB-78 CNS): 0.0117 µg/mL (≈ 0.0166 µM) | TGI (SNB-78 CNS): 0.0534 µg/mL (≈ 0.0759 µM) | TGI (K-562 leukemia): 21.8 µM and 0.0594 µg/mL | TGI (DU-145 prostate): > 100000 nM | GI50 (TK-10 renal): 0.0259 µg/mL (≈ 0.0368 µM) | TGI (TK-10 renal): 222 nM and 0.0678 µg/mL
